Reference: patent US20060241067A1, “Methods For inhibiting angiogenesis, cell migration, cell adhesion, and cell survival” (priority 2002, published 2006)

Tests used:
HUVECS [1] = experiment: Annexin V-FITC staining of HUVECs (apoptosis); assay type: cell-based, human
Method: Plates were also coated with […] goat anti-mouse IgG (Southern Biotechnology Associates, Inc., Birmingham, Ala.) at 37° C. for 2 h, rinsed, blocked with denatured BSA, and then incubated with […] anti-a5b1 or control IgG (anti-MHC) at 4° C. for 16 hrs. HUVECs were incubated on plates in the presence or absence of 10 mg/ml anti-α5β1, -αvβ3, -α2β1, or -MHC for 0-24 hrs. In some experiments, HUVECs were incubated with antibodies and […] caspase-3, -8 or -9 inhibitors or vehicle control (0.5% DMSO). Cells were then incubated with Annexin V-FITC for 15 min at room temperature in the dark. Washed cells were fixed in 1% paraformaldehyde, then incubated in DAPI. The percentage of Annexin positive cells in 5 microscopic fields was determined at 200× magnification by fluorescence microscopy.
(§1) HUVECs were plated for 24 h on ECM protein-coated plates in the presence of anti-αvβ3 or anti-α5β1, 1 μM HA1004 (a PKA inhibitor), and anti-αvβ3 or anti-α5β1 with 1 μM HA1004. Cells were stained with FITC-Annexin V or immunoblotted with anti-cleaved caspase 3 antibodies as described above. 5×10^6 HUVECs were electroporated in 300 μl of EGM with 30 μg of DNA (20 μg dnPKA or PKAcat plasmids, 2 μg N1-GFP and 8 μg pBluescript) at 300 V, 450 μF as previously described (Dormond et al. (2001) Nature Med. 7,1041-7). Expression of transgenes was determined by Western blotting of cell lysates with anti-V5 and anti-GFP antibodies. Transfection efficiency was quantified by determining the percent of cells that were co-transfected with GFP-expression vectors. Eighty-percent transfection efficiency was generally achieved using this electroporation method.

HUVECS [2] = experiment: Apoptosis assays in HUVECs (PARP and caspase immunoblots, caspase activity, DNA fragmentation); assay type: cell-based, human
Method: In some embodiments, HUVECs were incubated on ECM or antibody coated plates for 0-24 hrs. DNA fragmentation was detected by agarose gel electrophoresis as described in M. Herrmann et al. (See, M. Herrmann et al., Nucleic Acids Res., 22:5506-5507 (1994)). Alternatively, HUVECS on plates were lyzed with RIPA buffer (See, S. Kim et al., J. Biol. Chem., 275:33920-33928 (2000)) on ice. Lysates were electrophoresed on 8% SDS-PAGE gels and immunoblotted with anti-PARP, -caspase-3, -caspase-9, -cleaved caspase 3, or -cleaved caspase-9 antibodies. Immunoreactive bands were identified by chemiluminescence and quantified by densitometry. Caspase 3 and 8 activities were determined in cell lysates according to manufacturer's instructions (Calbiochem, La Jolla, Calif.).
as §1

[3] = tested on: chick chorioallantoic membrane (CAM); experiment: Chick chorioallantoic membrane (CAM) angiogenesis assay; assay type: in vivo, chicken; settings: bFGF stimulated CAMs
[4] = tested on: chick chorioallantoic membrane (CAM); experiment: Apoptosis markers in CAM blood vessels in vivo (Annexin V, cleaved caspases, TUNEL, DNA gels); design: species or system chicken
Method: CAM assays were performed as described (Kim et al. (2000) Am. J. Path. 156:1345-1362). Saline or bFGF stimulated CAMs were treated for 24 h with 20 μg anti-α5β1, anti-αvβ3 or control antibodies and then injected intravenously with 50 μl Annexin V-FITC. CAMs were harvested after 2 h, then analyzed by confocal microscopy. Alternatively, CAMs treated as above were excised, minced on ice, and treated with 0.1% dispase/0.1% collagenase for 1 h at 37° C. Single cell suspensions were incubated with FITC-Annexin V and analyzed as described above. bFGF stimulated CAMs were also treated with anti-α5β1 or anti-αvβ3 in the presence or absence of 500 μM caspase-3, -8 or -9 inhibitors. bFGF stimulated CAMs were also transfected with 4 μg N1-GFP, dnPKA or PKAcat expression plasmids. Freshly excised CAMs were homogenized in ice cold RIPA buffer containing protease inhibitors and immunoblotted to detect intact and cleaved caspase 3 or 8. For all treatment groups, n=10. CAMs were fixed with 3.7% paraformaldehyde prior to excision. The average number of blood vessel branch points per treatment group+/−SEM is presented. Some excised CAMs were cryopreserved, cut into 5 μm sections, immunostained with anti-cleaved caspase 3, anti-cleaved caspase 8 and anti-VFW antibodies (to detect blood vessels). CAMs were also stained by the TUNEL method to detect fragmented DNA.

[5] = tested on: Human umbilical vein endothelial cells (HUVEC); experiment: Endothelial cell migration assay (transwell) on ECM substrates; assay type: cell-based; settings: for endothelial cell migration on vitronectin: 1 μM peptide
Method: Human umbilical vein endothelial cells (HUVEC) were grown in Endothelial Growth Medium (containing 2% fetal bovine serum, bFGF and VEGF) (Clonetics, San Diego, Calif.). To render HUVECs quiescent for Rac and/or Rho assays, monolayers of endothelial cells were incubated for 18 hrs in Endothelial Basal Medium supplemented with 0.1% serum (Clonetics). Cell migration and adhesion assays on ECM substrates were performed as previously described in Kim et al. (S. Kim et al., Amer. J. Biol. Chem., 275:33920-33928 (2000); and S. Kim et al., Amer. J. Path., 156:1345-1362 (2000)).
Migration assays were performed essentially as described (Kim, et. al., 2000). […] HUVECS (25,000) were added to the upper chamber of inserts in migration buffer (Hepes buffered M199 medium containing 1% BSA, 2 mM MgCl2, 2 mM CaCl2 and 0.2 mM MnCl2) containing 25 μg/ml of various antibodies. In some experiments, 250 μM dibutyryl cAMP was placed in the upper and lower chambers of the transwell. Cells were allowed to migrate from the upper to the lower chamber for four hours at 37° C. The number of cells which had migrated were counted in three representative high power (200×) fields per insert. The data are presented as number of cells migrating+/−standard error of the mean. Migration assays were similarly performed on transfected cells. In this case, migrated transfected cells were identified by fluorescent microscopy and counted.

[6] = tested on: bFGF-stimulated angiogenesis in the mouse; experiment: Murine matrigel angiogenesis assay; assay type: in vivo, nude mice; settings: bFGF matrigel with peptide, subcutaneous
[7] = tested on: DU145 prostate carcinoma tumors; experiment: DU145 tumor assay in nude mice; assay type: in vivo; settings: daily intravenous injections, ten days

With `NC(N)=NCCNS(=O)(=O)c1cccc2cnccc12` [HA1004] as the compound, how does the “effect on apoptosis induced by integrin antagonists” value (HUVECS [1]; PKA inhibition (1 μM HA1004 or dnPKA), 24 h) read?
Its value is “substantially suppressed the apoptosis”.

What about the “effect on caspase 3 cleavage induced by anti-α5β1” value (HUVECS [2]; cells attached to vitronectin) of the same compound?
Its value is “blocked caspase 3 cleavage”.

With `COC(=O)CC[C@H](NC(=O)[C@H](CC(=O)OC)NC(=O)OCc1ccccc1)C(=O)N[C@H](C(=O)N[C@@H](CC(=O)OC)C(=O)CF)C(C)C` [caspase 3 inhibitors, z-DEVD-fmk] as the compound, how does the “effect on cell death induced by anti-α5β1 antibodies” value (HUVECS [1]; 50 μM caspase inhibitor, cells on fibronectin or vitronectin, 24 h) read?
Its value is “blocked”.

What about the “effect on inhibition of angiogenesis by anti-αvβ3” value ([3]; 500 μM caspase inhibitors) of the same compound?
The value was “partially reversed”.

And the “effect on inhibition of angiogenesis by anti-α5β1” value ([3]; 500 μM caspase inhibitors or 4 μg plasmid)?
Its value is “partially reversed”.

And the “caspase activity in vivo (cleaved caspase immunoblot)” value ([4]; CAMs treated with anti-α5β1 and caspase inhibitor)?
Its value is “partially blocked caspase 3 activity in vivo”.

And the “effect on endothelial cell DNA fragmentation induced by α5β1 inhibition in vivo” value ([4]; TUNEL staining of CAM cryosections)?
The value was “prevented in vivo endothelial cell DNA fragmentation”.

AVSEHQLLHS/D [PTHrP 1-10] was tested. Which “endothelial cell migration on vitronectin” value [5] did it give?
Its value is “similarly effective in inhibiting cell migration on vitronectin”.

What about the “maximum inhibition of cell migration” value ([5]; at a concentration of 10 μM) of the same compound?
The value was 50%.

And the “effectiveness at inhibiting angiogenesis relative to PTHrP 1-34” value ([3]; 1 μM)?
The value was “slightly less effective”.

What about the “angiogenesis (blood vessel branch points, vessel density)” value ([3]; 1 μM peptide) of the same compound?
Its value is “effective in inhibiting angiogenesis in the CAM assay”.

What about the “angiogenesis in matrigel plugs (fluorescence intensity of lectin)” value [6] of the same compound?
The value was “effective in inhibiting angiogenesis in a mouse model of angiogenesis”.

Which “endothelial cell migration on vitronectin” value [5] does the source give for “H L Q A H S V E D L (HLQAHSVEDL) [scrambled 1-10, scrambled version of PTHrP 1-10, control peptide]” here?
The value was “unable to inhibit cell migration”.

And the tumor growth ([7]; final serum concentration 1 μM)?
The tumor growth was “but not a scrambled control peptide, suppressed tumor growth and tumor angiogenesis”.

What about the “tumor angiogenesis (CD31 vessels)” value [7] of the same compound?
Its value is “but not a scrambled control peptide, suppressed tumor growth and tumor angiogenesis”.

How did the “annexin V binding of HUVECs by culture substrate” value (HUVECS [1]; coated plates, 0-8 h) turn out when “fibronectin: ECM protein used as culture substrate” was run?
Its value is “bind little annexin V”.

And the “DNA fragmentation by culture substrate” value (HUVECS [2]; HUVECs on coated plates)?
Its value is “protects HUVECs from DNA fragmentation”.

What about the “PARP cleavage by culture substrate” value (HUVECS [2]; HUVECs on coated plates) of the same compound?
The value was “showed little PARP cleavage”.
